According to patent US5116858A, “4-imidazoline derivatives” (Mitsubishi Kasei Corporation, priority 1989, dated 1992):

Key:
[1] = test system: cytotoxicities caused by active oxygen species; settings: background; cited from earlier work
Acute toxicity, oral = settings: rat, in vivo, SD rats, seven-day observation
Procedure: Compounds of the invention suspended in 1% tragacanth was orally administered to SD rats (both male and female) and mortality (LD50) was determined after seven-day observation.

[2] = test system: peroxidized lipid in rat brain homogenate; assay: Lipoperoxidation inhibitory activity in brain homogenate (TBA method); assay type: biochemical, Wistar male rats; settings: 30 minutes at 37° C., final conc. 0.3-100 μM, read-out: Anti-lipoperoxidation Activity IC50
Procedure: Brain homogenate was prepared using Wistar male rats in accordance with the following procedure. […] A polyethylene tube was inserted into the aorta through the left ventricle, and fixed. Brain perfusion was conducted using ice-cooled 50 mM phosphate buffered saline (PBS), pH 7.4, through the tube, and whole brain was extracted. After removal of the cerebellum, the cerebrum was weighed while wet and homogenated by a Teflon homogenizer under ice-cooling, after addition of nine-fold by weight of PBS. The resultant homogenate was centrifuged at 4° C. (2200 r.p.m., 10 minutes), and an aliquot of the supernatant (0.3 ml) was placed in a light-resistant test tube with ground stopper and used for the following test.
To the brain homogenate obtained above were added PBS (0.6 ml) and an ethanol solution (10 μl) containing a predetermined amount of a test compound. Thus, each of the ethanol solutions was prepared so that the final concentration of the compound was 0.3-100 μM. The mixture was allowed to warm for 30 minutes at 37° C. (external bath temperature). […] (2600 r.p.m., 10 minutes). The resultant supernatant was used in the following quantitative analysis.
The aqueous mixture was heated in a boiling-water bath for 60 minutes and cooled rapidly. Distilled water (1.0 ml) and a mixture of pyridine and butanol (1:15) (5.0 ml) were added to the cooled mixture, and the latter was shaken for 30 seconds and centrifuged (3000 r.p.m., 10 minutes). The supernatant was used as a test sample for quantitative analysis of peroxidized lipid as mentioned below.

mice = assay: Passive avoidance response test (memory-improving activity, cycloheximide-treated mice); assay type: in vivo; settings: Mus musculus; oral, 15 mice per group, cycloheximide 120 mg/kg s.c., latent time; read-out: Memory-Improving Activity, Minimum Effective Dose
Procedure: Passive avoidance response test was conducted in mice (15 animals per group) using light-dark differential apparatus of step-down type. The apparatus consisted of a dark room made of black and rigid vinylidene chloride resin [30 cm (depth)×30 cm (width)×31 cm (height)] and a light room, as an adjacent room, made of transparent rigid vinylidene chloride resin. The floor of the light room was set 2 cm higher than the grid surface of the dark room (step down type), and there was a guillotine door between the rooms. The animals were placed in the apparatus and acclimatized before test, and latent time for moving from the light room to the dark room was determined.
The acclimatized animals subcutaneously received 120 mg/kg of cycloheximide (Sigma) dissolved in physiological saline. After 30 minutes of the administration, the animals were placed in the light room. Immediatly after the movement of the animals to the dark room, electric current was applied on the grid (0.5 mA, 3 seconds), which gave the animals "aquired behavior". After 24 hours of the establishment of the aquired behavior, a test compound suspended in 1% tragacanth was administered orally to the animals, which were then returned to the light room. Control animals received only 1% tragacanth. The latent time until an individual animal started to move to the dark room was determined.

[3] = background, Iyakuhin Kenkyu 16, 1 (1985); cited from earlier work

For `O=C1O[C@H]([C@@H](O)CO)C(O)=C1O` [Vitamin C], the “activity as inhibitory agent for cytotoxicities (in words)” value [1] is given as “very limited in their activities”.

With `Cc1[nH]c(=O)n(C)c1-c1ccc(C2CCCCC2)cc1` [compound 8] the LD50 at 168 h (Acute toxicity, oral) was greater than 1000 mg/kg, the IC50 [2] was 10 µM and the minimal effective dose (mice) was 0.1 mg/kg.

In the case of `Cc1[nH]c(=O)n(C)c1-c1ccc(-c2ccccc2)cc1` [compound 16], the LD50 at 168 h (Acute toxicity, oral) is reported as greater than 1000 mg/kg, the IC50 [2] is reported as 6.3 µM and the minimal effective dose (mice) is reported as 0.3 mg/kg.

For `CCN(CC)Cc1nccn1-c1ccc([N+](=O)[O-])cc1C(=O)c1ccccc1Cl` [nizofenone], the “inhibitory action on CNS (in words)” value [3] is listed as “strong inhibitory action on CNS”.

In the case of Vitamin E, the “activity as inhibitory agent for cytotoxicities (in words)” value [1] is given as “very limited in their activities”.
